Results as given in US9645128B2, “Substituted imidazo[1,2-A]pyrazines for measuring a transcription activity” (JNC CORPORATION, priority 2009, dated 2017).

Columns and labels:
[1] = target: T1, 19 kDa protein of Oplophorus luciferase (Oplophorus gracilirostris, UniProt Q9GV45); assay: Substrate specificity, luminescence activity and emission spectra of the 19 kDa protein of Oplophorus luciferase; format: biochemical, Oplophorus gracilorostris; details: for Maximum emission wavelength λmax (nm): 22 to 25° C.; for Luminescence capacity 10 secs. (%): emission integrated for 10 seconds; for Luminescence capacity 10 secs. (%) / Luminescence activity Imax (%): coelenterazine = 100.0
T1 construct: made in house
T1 sequence (Q9GV45 28-196): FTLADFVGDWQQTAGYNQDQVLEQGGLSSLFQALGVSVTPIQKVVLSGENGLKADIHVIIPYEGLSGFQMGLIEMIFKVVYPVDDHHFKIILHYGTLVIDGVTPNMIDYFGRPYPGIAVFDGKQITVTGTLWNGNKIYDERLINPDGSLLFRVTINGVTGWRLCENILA

Renilla luciferase = target: T2, Renilla luciferase (Renilla reniformis, UniProt P27652); assay: Substrate specificity, luminescence activity and emission spectra of Renilla luciferase; format: biochemical; details: for Maximum emission wavelength λmax (nm) / Luminescence activity Imax (%) / Luminescence capacity 10 secs. (%): Renilla luciferase; for Maximum emission wavelength λmax (nm): 22 to 25° C.; for Luminescence activity Imax (%) / Luminescence capacity 10 secs. (%): coelenterazine = 100.0; for Ability to act as substrate for Renilla luciferase: TABLE 4
T2 construct: made in house
T2 sequence (P27652 1-311): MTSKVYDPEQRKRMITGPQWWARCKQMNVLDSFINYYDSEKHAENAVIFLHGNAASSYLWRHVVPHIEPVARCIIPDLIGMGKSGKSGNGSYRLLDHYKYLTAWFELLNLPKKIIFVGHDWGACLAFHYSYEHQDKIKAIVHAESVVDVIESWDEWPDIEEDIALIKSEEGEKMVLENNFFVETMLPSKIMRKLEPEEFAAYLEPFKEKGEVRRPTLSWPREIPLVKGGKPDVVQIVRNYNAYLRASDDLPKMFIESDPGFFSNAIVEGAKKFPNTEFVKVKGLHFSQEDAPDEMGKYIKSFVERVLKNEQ
Description: Res. Commun. (1997) 233: 349-353, which was provided for use.

recombinant apoaequorin [2] = target: T3, recombinant apoaequorin (Aequorea victoria, UniProt P07164); assay: Luminescence patterns and half decay time of semi-synthetic aequorins; format: biochemical; parameters: purchased Chisso Corporation; details: for Half decay time of luminescence compared with CTZ: semi-synthetic aequorin (FIG. 2, TABLE 1); for Half decay time sec.: semi-synthetic aequorin, time to reach half of the maximum luminescence intensity
T3 sequence (P07164 other isoform, or with tags, fused parts or gaps with the stated changes): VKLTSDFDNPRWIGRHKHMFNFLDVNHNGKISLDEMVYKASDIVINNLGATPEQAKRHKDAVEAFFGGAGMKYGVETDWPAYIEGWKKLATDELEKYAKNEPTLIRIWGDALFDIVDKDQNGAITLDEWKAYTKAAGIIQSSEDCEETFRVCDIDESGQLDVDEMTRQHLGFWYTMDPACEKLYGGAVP
Procedure: The dilution was dispensed into a 96-well microplate (Nunc #236108) in 5 μl/well. […] The luminescence patterns for 60 seconds were measured to determine the half decay time of luminescence (time period to reach the half of the maximum luminescence intensity).

recombinant apoaequorin [3] = target: T3, recombinant apoaequorin; assay: Calcium standard curve with semi-synthetic aequorins; format: biochemical; parameters: purchased Chisso Corporation; details: Imax versus 10^-3 M to 10^-8 M calcium
Procedure: The dilution series was prepared by the serial process above to prepare standard calcium solution of 10^−3 M to 10^−8 M.
The semi-synthetic aequorin obtained was concentrated using Amicon Ultra-4 (manufactured by Millipore, molecular weight cut off, 10.000).
This semi-synthetic aequorin solution (2.5 mg/ml) was diluted with 20 mM Tris-HCl (pH 7.6) containing 0.1% BSA (manufactured by Sigma), 0.01 mM EDTA and 150 mM NaCl.
The calcium standard solution prepared as described above was dispensed into a 96-well microplate (Nunc #236108) in 50 μl/well, and the semi-synthetic aequorin solution diluted was injected in […]. The luminescence intensity was measured for 60 seconds using a luminescence plate reader Centro LB960 (manufactured by Berthold) and expressed in terms of the maximum luminescence intensity (Imax). The luminescence intensity was measured for each semi-synthetic aequorin in the same fashion. Based on the maximum luminescence intensity (Imax) obtained, the calcium standard curve for each semi-synthetic aequorin was prepared.

recombinant apoaequorin [4] = target: T3, recombinant apoaequorin; assay: Emission spectra of semi-synthetic aequorins by addition of calcium ions; details: for Emission spectra of semi-synthetic aequorins compared with known analogs (FIG. 3): compared to h-CTZ and i-CTZ; for Maximum emission wavelength λmax (nm): semi-synthetic aequorin, 22 to 25° C.
Procedure: In a quartz cell with an optical path length of 10 mm, 1 ml of 50 mM Tris-HCl (pH 7.6) containing 1 mM EDTA and 100 μl (100 μg protein) of a solution of the regenerated semi-synthetic aequorin were charged and they were mixed. Subsequently, 100 μl of 50 mM Tris-HCl (pH 7.6) containing 0.1 ml of 10 mM calcium chloride solution was added to the mixture to trigger the luminescence reaction. The spectra were measured on a spectrofluorimeter (FP-6500, manufactured by JASCO Corporation) with the excitation source turned off. The measurement conditions used were as follows: band width, 20 nm; response, 0.5 second and scan speed, 2000 nm/min at 22 to 25° C.

Gaussia luciferase = assay: Substrate specificity, luminescence activity and emission spectra of Gaussia luciferase; details: for Luminescence activity Imax (%) / Luminescence capacity 10 secs. (%): Gaussia luciferase, coelenterazine = 100.0
Procedure: The luminescence activity was measured for 10 seconds using a luminometer Luminescencer-PSN AB2200 (manufactured by Atto Co., Ltd.). The luminescence activity was measured 3 times and expressed as the maximum intensity (Imax) of luminescence.

recombinant apoaequorin [5] = target: T3, recombinant apoaequorin; assay: Production of semi-synthetic aequorins and measurement of luminescence activity (Imax, luminescence capacity); details: for Ability to act as luminescence substrate for semi-synthetic aequorins (FIG. 1): regeneration 0.5 to 18 hours at 4° C.; for Luminescence activity Imax (%) / Luminescence capacity 60 sec (%): semi-synthetic aequorin, coelenterazine = 100.0; for Luminescence activity Imax (%): Ca2+-triggered, maximum intensity; for Luminescence capacity 60 sec (%): emission integrated for 60 seconds
Procedure: In order to confirm the regeneration time and regeneration efficiency from apoaequorin to the semi-synthetic aequorin, the luminescence activity was assayed at the respective points of the regeneration process (at the respective points of 0.5, 1, 1.5, 2, 3 and 18 hours from the start of regeneration).
Specifically, the luminescence activity described above was measured as follows. The luminescence reaction was started by adding 100 μl of 50 mM Tris-HCl (pH 7.6) containing 50 mM calcium chloride solution to 2 μl of a solution of the semi-synthetic aequorin at each regeneration process. The luminescence activity was measured for 10 seconds with a luminometer Luminescencer-PSN AB2200 (manufactured by Atto Co., Ltd.). The measured values were represented as the maximum intensity (Imax) of luminescence. The emission for 60 seconds was integrated, which was made a luminescence capacity.

Compound	Maximum emission wavelength λmax (nm) ([1]; Oplophorus luciferase)	Luminescence capacity 10 secs. (%) ([1]; Oplophorus luciferase)	Luminescence activity Imax (%) ([1]; Oplophorus luciferase)	Quality as luminescence substrate for Oplophorus luciferase ([1]; TABLE 2)	Maximum emission wavelength λmax (nm) (Renilla luciferase)	Luminescence activity Imax (%) (Renilla luciferase)	Luminescence capacity 10 secs. (%) (Renilla luciferase)	Ability to act as substrate for Renilla luciferase (Renilla luciferase)	melting point	Half decay time sec. (recombinant apoaequorin [2])	Calcium standard curve with semi-synthetic aequorin (FIG. 4) (recombinant apoaequorin [3])	Emission spectra of semi-synthetic aequorins compared with known analogs (FIG. 3) (recombinant apoaequorin [4])	Maximum emission wavelength λmax (nm) (recombinant apoaequorin [4])	Luminescence activity Imax (%) (Gaussia luciferase)	Luminescence capacity 10 secs. (%) (Gaussia luciferase)	Ability to act as luminescence substrate for semi-synthetic aequorins (FIG. 1) (recombinant apoaequorin [5])	Luminescence activity Imax (%) (recombinant apoaequorin [5])	Luminescence capacity 60 sec (%) (recombinant apoaequorin [5])	other results
Cc1ccc(Cc2nc3c(Cc4ccccc4)[nH]c(-c4ccc(O)cc4)cn-3c2=O)cc1 [me-CTZ, me-coelenterazine]	454.4 nm	82.7%	46.6%	relatively good luminescence substrates	472.0 nm	6.6%	7.0%	can be substrates for Renilla luciferase	150 to 152 °C (dec.)	5.00 s	calcium standard curves can be prepared	exhibit different emission spectra from those of known coelenterazine analogs	469.5 nm	4.5%	5.9%	can be luminescence substrates for semi-synthetic aequorins	–	–	Half decay time of luminescence compared with CTZ (recombinant apoaequorin [2]): longer than CTZ; Quality as luminescence substrate for Gaussia luciferase (Gaussia luciferase; TABLE 3): effective luminescence substrates
O=c1c(Cc2ccc(C(F)(F)F)cc2)nc2c(Cc3ccccc3)[nH]c(-c3ccc(O)cc3)cn1-2 [cf3-CTZ, cf3-coelenterazine]	450.5 nm	68.2%	49.5%	relatively good luminescence substrates	474.5 nm	0.8%	0.8%	–	157 to 161 °C (dec.)	5.95 s	calcium standard curves can be prepared	exhibit different emission spectra from those of known coelenterazine analogs	473.5 nm	0.8%	0.7%	can be luminescence substrates for semi-synthetic aequorins	–	–	Half decay time of luminescence compared with CTZ (recombinant apoaequorin [2]): longer than CTZ
COc1cccc(Cc2nc3c(Cc4ccccc4)[nH]c(-c4ccc(O)cc4)cn-3c2=O)c1 [3meo-CTZ, 3meo-coelenterazine]	455.5 nm	204.7%	189.1%	relatively good luminescence substrates	473.5 nm	26.0%	31.6%	can be substrates for Renilla luciferase	136 to 140 °C (dec.)	0.52 s	calcium standard curves can be prepared	exhibit different emission spectra from those of known coelenterazine analogs	466.0 nm	3.8%	3.1%	can be luminescence substrates for semi-synthetic aequorins	–	–	Luminescence activity and/or capacity compared to known h-CTZ ([1]; Oplophorus luciferase, TABLE 2): high luminescence activity and/or luminescence capacity
et-coelenterazine [et-CTZ]	454.0 nm	39.5%	21.1%	relatively good luminescence substrates	471.0 nm	0.5%	0.3%	–	–	1.21 s	calcium standard curves can be prepared	exhibit different emission spectra from those of known coelenterazine analogs	472.0 nm	0.9%	1.1%	can be luminescence substrates for semi-synthetic aequorins	27.3%	44.1%	–
COc1ccc(Cc2nc3c(Cc4ccccc4)[nH]c(-c4ccc(O)cc4)cn-3c2=O)cc1 [meo-CTZ, meo-coelenterazine]	454.5 nm	108.6%	68.1%	relatively good luminescence substrates	472.5 nm	8.0%	8.6%	can be substrates for Renilla luciferase	137 to 139 °C (dec.)	1.63 s	calcium standard curves can be prepared	exhibit different emission spectra from those of known coelenterazine analogs	469.0 nm	13.6%	15.5%	can be luminescence substrates for semi-synthetic aequorins	–	–	–
n-coelenterazine [n-CTZ, reference compound]	–	–	–	–	–	–	–	–	–	4.71 s	–	–	467.0 nm	–	–	–	3.6%	24.0%	–
coelenterazine [CTZ, reference compound]	457.0 nm	100.0%	100.0%	–	472.5 nm	100.0%	100.0%	–	–	0.81 s	–	–	465.5 nm	100.0%	100.0%	–	100.0%	100.0%	–
i-coelenterazine [i-CTZ, reference compound]	450.0 nm	53.8%	32.3%	–	473.0 nm	0.2%	0.3%	–	–	11.42 s	–	–	472.0 nm	0.9%	1.3%	–	5.0%	65.3%	–
Oc1ccc(-c2cn3c(O)c(Cc4ccccc4)nc3c(Cc3ccccc3)n2)cc1 [h-CTZ, h-coelenterazine, reference compound]	456.5 nm	110.2%	68.4%	–	472.5 nm	78.6%	90.3%	–	–	0.69 s	–	–	465.5 nm	5.8%	7.2%	–	87.9%	70.1%	–
